From patent publication US20130280741A1, “METHOD AND SYSTEM OF DETECTING DIOXIN-LIKE COMPOUNDS” (priority 2012, published 2013)

Key:
AHR-RL and ARNT-YFP = target: T1, AHR-RL and ARNT-YFP (Homo sapiens, UniProt P35869); test: BRET assay in AAPA cells; assay type: cell-based
T1 construct: expressed in transfected cells
Procedure: (§1) Tetracycline-regulated expression cells (T-REx™ cells) (Invitrogen, Carlsbad, Calif., USA) were transfected with AHR-RL, AIP-HIS and P23-HIS by lipofectamin 2000™ transfection reagent (Invitrogen, Carlsbad, Calif., USA) according to the manufacturer's instructions. Transfected cells were cultured in DMEM growth medium (Gibco, USA) supplemented with 10% fetal bovine serum (FBS), (Gibco, USA), 5 μg/ml Blasticidin, 250 μg/ml Zeocin and 500 μg/ml G418. The optimal cell lines were then transfected with ARNT-YFP or HSP90-YFP and selected with 200 μg/ml Hygromycin to obtain a stable cell line transfected with ARNT-YFP (called as “AAPA cells”) and obtain a stable cell line transfected with HSP90-YFP (called as “AAPH cells”).
For the inducible protein expression and AHR complex formation, the AAPA cells, which were stably co-transfected with AHR-RL, AIP-HIS, P23-HIS and ARNT-YFP, were prepared following the method as described in Example 2 and then were treated with 1 μg/ml tetracycline for 48 hours. Then, the treated cells were washed by phosphate-buffered saline (PBS) twice.
For dioxin detection, different concentrations of 3-methylcholanthrene (3MC) (Boehringer Mannheim, Mannheim, Germany) were mixed with the cells and cultured in a 96-well white polystyrene plate (Corning, USA) at 37° C. for 1 hour. The BRET signals were determined by addition of coelenterazine, a substrate of Renilla Luciferase, to a final concentration of […].

AHR-RL and HSP90-YFP = target: T2, AHR-RL and HSP90-YFP (Homo sapiens, UniProt P35869); test: BRET assay in AAPH cells; assay type: cell-based; details: different concentrations, 37° C., dose-dependent (FIG. 2C)
T2 construct: expressed in transfected cells
T2 sequence (P35869 11-848): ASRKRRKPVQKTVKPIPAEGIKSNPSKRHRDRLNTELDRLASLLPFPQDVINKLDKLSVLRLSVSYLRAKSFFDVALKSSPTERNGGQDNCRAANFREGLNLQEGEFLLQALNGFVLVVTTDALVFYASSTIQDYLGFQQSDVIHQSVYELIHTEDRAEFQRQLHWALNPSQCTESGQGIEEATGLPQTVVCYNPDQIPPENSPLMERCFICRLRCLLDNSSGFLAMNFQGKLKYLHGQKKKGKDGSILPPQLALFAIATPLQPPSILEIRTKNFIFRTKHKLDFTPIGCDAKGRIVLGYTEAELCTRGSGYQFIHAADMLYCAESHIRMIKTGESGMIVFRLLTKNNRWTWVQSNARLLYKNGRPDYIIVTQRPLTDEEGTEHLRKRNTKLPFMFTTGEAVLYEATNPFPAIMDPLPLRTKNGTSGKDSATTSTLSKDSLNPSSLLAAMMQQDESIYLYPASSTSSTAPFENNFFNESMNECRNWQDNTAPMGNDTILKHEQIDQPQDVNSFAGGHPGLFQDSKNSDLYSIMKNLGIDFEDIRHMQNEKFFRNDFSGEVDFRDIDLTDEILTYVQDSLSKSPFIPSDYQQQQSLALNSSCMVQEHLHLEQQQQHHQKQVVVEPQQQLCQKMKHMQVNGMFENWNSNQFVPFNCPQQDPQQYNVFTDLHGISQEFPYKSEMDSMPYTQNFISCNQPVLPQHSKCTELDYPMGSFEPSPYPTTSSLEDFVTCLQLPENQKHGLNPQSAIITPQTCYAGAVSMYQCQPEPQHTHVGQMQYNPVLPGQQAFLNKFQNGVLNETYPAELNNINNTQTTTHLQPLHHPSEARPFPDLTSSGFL
T2 sequence (P08238 whole entry partner): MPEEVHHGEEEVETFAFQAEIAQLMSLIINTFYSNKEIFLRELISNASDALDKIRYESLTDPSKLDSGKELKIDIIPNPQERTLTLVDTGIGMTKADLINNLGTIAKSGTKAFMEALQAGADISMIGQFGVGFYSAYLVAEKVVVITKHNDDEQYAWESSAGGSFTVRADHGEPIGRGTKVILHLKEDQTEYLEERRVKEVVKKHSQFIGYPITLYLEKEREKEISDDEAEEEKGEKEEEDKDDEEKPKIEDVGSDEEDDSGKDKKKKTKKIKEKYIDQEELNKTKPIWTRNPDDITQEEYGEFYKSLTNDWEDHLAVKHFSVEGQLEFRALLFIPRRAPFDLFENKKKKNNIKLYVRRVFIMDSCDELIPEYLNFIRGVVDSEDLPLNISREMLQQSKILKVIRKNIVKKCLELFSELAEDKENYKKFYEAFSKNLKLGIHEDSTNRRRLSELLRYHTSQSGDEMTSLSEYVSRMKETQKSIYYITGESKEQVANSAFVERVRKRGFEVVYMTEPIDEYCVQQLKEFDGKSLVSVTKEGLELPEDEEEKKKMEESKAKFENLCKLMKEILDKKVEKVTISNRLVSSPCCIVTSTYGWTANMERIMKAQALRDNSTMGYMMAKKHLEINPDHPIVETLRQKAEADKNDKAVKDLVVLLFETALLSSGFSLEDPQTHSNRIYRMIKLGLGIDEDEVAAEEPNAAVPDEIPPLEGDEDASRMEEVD
T2 sequence (O00170 whole entry partner): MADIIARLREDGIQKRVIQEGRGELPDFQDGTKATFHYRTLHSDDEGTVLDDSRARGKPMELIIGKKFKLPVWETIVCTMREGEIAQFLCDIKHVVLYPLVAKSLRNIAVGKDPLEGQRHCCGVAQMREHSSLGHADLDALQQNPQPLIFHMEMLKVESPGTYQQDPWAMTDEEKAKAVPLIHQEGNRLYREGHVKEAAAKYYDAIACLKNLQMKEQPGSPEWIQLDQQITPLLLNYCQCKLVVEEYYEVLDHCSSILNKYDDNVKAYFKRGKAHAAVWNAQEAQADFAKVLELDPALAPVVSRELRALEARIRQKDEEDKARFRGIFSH
T2 sequence (Q15185 whole entry partner): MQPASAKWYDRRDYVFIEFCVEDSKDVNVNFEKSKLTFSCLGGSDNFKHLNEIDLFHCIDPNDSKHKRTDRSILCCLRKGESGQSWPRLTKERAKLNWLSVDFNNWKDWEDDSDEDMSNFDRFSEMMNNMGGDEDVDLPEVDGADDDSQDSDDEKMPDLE
Procedure: as §1
On the other hand, the AAPH cells, which were stably co-transfected with AHR-RL, AIP-HIS, P23-HIS and HSP-90YFP, were prepared and then mixed with different concentrations of 3MC and cultured in a 96-well white polystyrene plate (Corning, USA) at 37° C.

AHR-RL = target: T3, AHR-RL (Homo sapiens, UniProt P35869); test: Renilla luciferase signal of AHR-RL in cell-free AAPA whole cell lysate; assay type: biochemical; details: for detection limits / Renilla luciferase signals in the cell-free system: AAPA cell free lysate, 37° C.; for Renilla luciferase signals in the cell-free system: dose-dependent (FIGS. 4 and 5); for lowest concentration at which AHR-RL signal degradation can be detected: cell-free system
T3 construct: expressed in transfected cells; host or cells: sonicated, cleared lysate of tetracycline-induced AAPA cells (T-REx cells, Invitrogen)
T3 sequence (P35869 11-848): as the sequence (P35869 11-848) above
T3 sequence (P08238 whole entry partner): as the sequence (P08238 whole entry partner) above
T3 sequence (O00170 whole entry partner): as the sequence (O00170 whole entry partner) above
T3 sequence (Q15185 whole entry partner): as the sequence (Q15185 whole entry partner) above
Procedure: 5×10^6 AAPA cells obtained in Example 4 were cultured in a 15 cm dish containing 25 ml DMEM medium supplemented with 10% FBS and 3.5 μg/ml tetracycline for 24 hrs. The cells were harvested and re-suspended in 10 ml cold PBS. The cells were lysed by sonication on ice using sonicator (Branson, Danbury Conn., USA) at amplitude of 10% for 30 cycles of 5 sec on and 15 sec off. The cellular debris was removed by centrifugation at 1,000 g for 10 min. For detection, 90 μl cell free lysates and different concentrations of 3MC were mixed and cultured in 96 well white polystyrene plate (Corning, USA) at room temperature. Renilla luciferase signals were determined by addition of coelenterazine to a final concentration of 0.35 μM. The result for detecting TCDD was shown in FIG. 3 (y=136.97x+2251.9, R^2=0.9794).
In addition, the cell free lysates and different concentrations of 3MC and TCDD were mixed and cultured in 96 well white polystyrene plate (Costar) at 37° C., respectively.

T1 sequence (P35869 11-848): as the sequence (P35869 11-848) above
T1 sequence (P08238 whole entry partner): as the sequence (P08238 whole entry partner) above
T1 sequence (O00170 whole entry partner): as the sequence (O00170 whole entry partner) above
T1 sequence (Q15185 whole entry partner): as the sequence (Q15185 whole entry partner) above

Cc1ccc2cc3c(ccc4ccccc43)c3c2c1CC3 [3MC, 3-methylcholanthrene]
BRET signals (AHR-RL and ARNT-YFP; AAPA cells, different concentrations, 37° C. for 1 hour, dose-dependent (FIG. 2B)): increased
concentration at which BRET signal induction was first observed (AHR-RL and ARNT-YFP): 1 pM
BRET signals (AHR-RL and HSP90-YFP): suppressed
detection limits (AHR-RL): 10^−16 M
Renilla luciferase signals in the cell-free system (AHR-RL): increased
lowest concentration at which AHR-RL signal degradation can be detected (AHR-RL): 10 aM

Clc1cc2c(cc1Cl)Oc1cc(Cl)c(Cl)cc1O2 [TCDD, 2,3,7,8-tetrachlorodibenzo-p-dioxin]
concentration at which BRET signal induction was first observed (AHR-RL and ARNT-YFP): 1 pM
detection limits (AHR-RL): 10^−16 M
Renilla luciferase signals in the cell-free system (AHR-RL): increased
lowest concentration at which AHR-RL signal degradation can be detected (AHR-RL): 10 aM
